This is an account of results in BindingDB's records for doi:10.1016/s0960-894x(02)00489-4 (University of Antwerp (Uia), 2002).

This test concerns the target T1, Glutathionylspermidine synthase (Crithidia fasciculata, UniProt P90518).
T1 sequence (P90518 whole entry): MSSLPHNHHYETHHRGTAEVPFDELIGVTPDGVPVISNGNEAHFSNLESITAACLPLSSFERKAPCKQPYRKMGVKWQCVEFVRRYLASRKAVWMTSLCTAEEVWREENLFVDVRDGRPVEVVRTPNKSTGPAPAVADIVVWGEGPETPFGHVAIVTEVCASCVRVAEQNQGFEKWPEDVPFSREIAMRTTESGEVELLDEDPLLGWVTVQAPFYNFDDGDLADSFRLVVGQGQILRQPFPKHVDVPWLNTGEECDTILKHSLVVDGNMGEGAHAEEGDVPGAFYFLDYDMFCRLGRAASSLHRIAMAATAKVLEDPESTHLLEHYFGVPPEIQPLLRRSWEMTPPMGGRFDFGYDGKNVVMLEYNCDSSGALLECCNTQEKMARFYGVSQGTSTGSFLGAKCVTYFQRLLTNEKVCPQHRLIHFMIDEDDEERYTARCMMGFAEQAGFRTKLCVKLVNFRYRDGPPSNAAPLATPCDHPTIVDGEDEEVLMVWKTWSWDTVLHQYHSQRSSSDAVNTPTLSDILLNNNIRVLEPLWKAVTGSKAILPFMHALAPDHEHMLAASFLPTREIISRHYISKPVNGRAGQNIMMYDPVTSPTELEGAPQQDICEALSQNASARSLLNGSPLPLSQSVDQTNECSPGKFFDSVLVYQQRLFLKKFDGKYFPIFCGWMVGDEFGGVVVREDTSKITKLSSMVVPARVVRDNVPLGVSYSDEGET
The test is described as follows: Inhibitory activity against amidase free Glutathionylspermidine Synthetase mutant (C79A).

Where a SMILES comes first, the peptide text is derived from it.

`CC(C)C[C@H](NC(=O)CC[C@H](N)C(=O)O)C(=O)NCC(N)=O` [2-Amino-4-[1-(carbamoylmethyl-carbamoyl)-3-methyl-butylcarbamoyl]-butyric acid] (HELM PEPTIDE1{[gGlu].L.G.[am]}$$$$V2.0) had an IC50 of over 2 µM.

For orientation: IC50 means the concentration that gives 50% inhibition. A higher IC50 goes with lower potency.
